Laboratory results taken from PubChem BioAssay (NCI).
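These data come from cells grown in 96-well plates and exposed to compound for 48 hours at five concentrations. At the TGI there is no net growth.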

Assays:
Assay in all cases: NCI anticancer screen, dose series, 48 h
786-0 renal = tested on: 786-0 renal
A549 NSCLC = tested on: A549 NSCLC
ACHN renal = tested on: ACHN renal
BT-549 breast = tested on: BT-549 breast
CAKI-1 renal = tested on: CAKI-1 renal
CCRF-CEM leukemia = tested on: CCRF-CEM leukemia
COLO 205 colon = tested on: COLO 205 colon
DU-145 prostate = tested on: DU-145 prostate
EKVX NSCLC = tested on: EKVX NSCLC
HCT-116 colon = tested on: HCT-116 colon
HCT-15 colon = tested on: HCT-15 colon
HL-60(TB) leukemia = tested on: HL-60(TB) leukemia
HOP-62 NSCLC = tested on: HOP-62 NSCLC
HOP-92 NSCLC = tested on: HOP-92 NSCLC
HT29 colon = tested on: HT29 colon
IGROV1 ovarian = tested on: IGROV1 ovarian
K-562 leukemia = tested on: K-562 leukemia
KM12 colon = tested on: KM12 colon
LOX IMVI melanoma = tested on: LOX IMVI melanoma
M14 melanoma = tested on: M14 melanoma
MCF7 breast = tested on: MCF7 breast
MDA-MB-231 breast = tested on: MDA-MB-231 breast
MDA-MB-435 = tested on: MDA-MB-435
MDA-N = tested on: MDA-N
MOLT-4 leukemia = tested on: MOLT-4 leukemia
NCI-H23 lung = tested on: NCI-H23 lung
NCI-H460 lung = tested on: NCI-H460 lung
NCI/ADR-RES ovarian = tested on: NCI/ADR-RES ovarian
OVCAR-3 ovarian = tested on: OVCAR-3 ovarian
OVCAR-4 ovarian = tested on: OVCAR-4 ovarian
OVCAR-5 ovarian = tested on: OVCAR-5 ovarian
OVCAR-8 ovarian = tested on: OVCAR-8 ovarian
PC-3 prostate = tested on: PC-3 prostate
RPMI-8226 leukemia = tested on: RPMI-8226 leukemia
RXF 393 renal = tested on: RXF 393 renal
SF-295 CNS = tested on: SF-295 CNS
SF-539 CNS = tested on: SF-539 CNS
SK-MEL-2 melanoma = tested on: SK-MEL-2 melanoma
SK-MEL-28 melanoma = tested on: SK-MEL-28 melanoma
SK-MEL-5 melanoma = tested on: SK-MEL-5 melanoma
SK-OV-3 ovarian = tested on: SK-OV-3 ovarian
SN12C renal = tested on: SN12C renal
SNB-19 CNS = tested on: SNB-19 CNS
SNB-75 CNS = tested on: SNB-75 CNS
SR leukemia = tested on: SR leukemia
SW-620 colon = tested on: SW-620 colon
T-47D breast = tested on: T-47D breast
TK-10 renal = tested on: TK-10 renal
U251 CNS = tested on: U251 CNS
UACC-257 melanoma = tested on: UACC-257 melanoma
UACC-62 melanoma = tested on: UACC-62 melanoma
UO-31 renal = tested on: UO-31 renal
HCC-2998 colon = tested on: HCC-2998 colon
MALME-3M melanoma = tested on: MALME-3M melanoma
NCI-H226 lung = tested on: NCI-H226 lung
NCI-H522 lung = tested on: NCI-H522 lung
SF-268 CNS = tested on: SF-268 CNS

COc1cc(Br)cc2cc(C3=CSC4=NCCN34)c(=O)oc12
TGI (786-0 renal): 32.7 µM
TGI (A549 NSCLC): 50.8 µM
TGI (ACHN renal): 80.6 µM
TGI (BT-549 breast): 42.2 µM
TGI (CAKI-1 renal): > 100 µM
TGI (CCRF-CEM leukemia): 56.8 µM
TGI (COLO 205 colon): 43.5 µM
TGI (DU-145 prostate): 33 µM
TGI (EKVX NSCLC): 32.3 µM
TGI (HCT-116 colon): 32.2 µM
TGI (HCT-15 colon): 37.2 µM
TGI (HL-60(TB) leukemia): 77.6 µM
TGI (HOP-62 NSCLC): 34.9 µM
TGI (HOP-92 NSCLC): 36.7 µM
TGI (HT29 colon): 34.7 µM
TGI (IGROV1 ovarian): 32.5 µM
TGI (K-562 leukemia): > 100 µM
TGI (KM12 colon): 39 µM
TGI (LOX IMVI melanoma): 33.7 µM
TGI (M14 melanoma): 49.4 µM
TGI (MCF7 breast): 33 µM
TGI (MDA-MB-231 breast): 36 µM
TGI (MDA-MB-435): 33.9 µM
TGI (MDA-N): 34.4 µM
TGI (MOLT-4 leukemia): 69.5 µM
TGI (NCI-H23 lung): 40.8 µM
TGI (NCI-H460 lung): 40.3 µM
TGI (NCI/ADR-RES ovarian): > 100 µM
TGI (OVCAR-3 ovarian): 33.1 µM
TGI (OVCAR-4 ovarian): 37.2 µM
TGI (OVCAR-5 ovarian): 54.5 µM
TGI (OVCAR-8 ovarian): 34.4 µM
TGI (PC-3 prostate): 35.6 µM
TGI (RPMI-8226 leukemia): 55.3 µM
TGI (RXF 393 renal): 34.6 µM
TGI (SF-295 CNS): 35.8 µM
TGI (SF-539 CNS): 37.4 µM
TGI (SK-MEL-2 melanoma): 40 µM
TGI (SK-MEL-28 melanoma): 59.4 µM
TGI (SK-MEL-5 melanoma): 35.3 µM
TGI (SK-OV-3 ovarian): 66.2 µM
TGI (SN12C renal): 32 µM
TGI (SNB-19 CNS): 33.4 µM
TGI (SNB-75 CNS): 43.3 µM
TGI (SR leukemia): 63.4 µM
TGI (SW-620 colon): 49.1 µM
TGI (T-47D breast): 42.2 µM
TGI (TK-10 renal): 34.8 µM
TGI (U251 CNS): 32.6 µM
TGI (UACC-257 melanoma): 65.8 µM
TGI (UACC-62 melanoma): 33.6 µM
TGI (UO-31 renal): 35.6 µM

CC(C)(/C=N\O)NO
TGI (786-0 renal): > 10 µM
TGI (A549 NSCLC): > 10 µM
TGI (ACHN renal): > 10 µM
TGI (BT-549 breast): > 10 µM
TGI (CAKI-1 renal): > 10 µM
TGI (CCRF-CEM leukemia): > 10 µM
TGI (COLO 205 colon): > 10 µM
TGI (DU-145 prostate): > 10 µM
TGI (EKVX NSCLC): > 10 µM
TGI (HCC-2998 colon): > 10 µM
TGI (HCT-116 colon): > 10 µM
TGI (HCT-15 colon): > 10 µM
TGI (HL-60(TB) leukemia): > 10 µM
TGI (HOP-62 NSCLC): > 10 µM
TGI (HOP-92 NSCLC): > 10 µM
TGI (HT29 colon): > 10 µM
TGI (K-562 leukemia): > 10 µM
TGI (KM12 colon): > 10 µM
TGI (LOX IMVI melanoma): > 10 µM
TGI (M14 melanoma): > 10 µM
TGI (MALME-3M melanoma): > 10 µM
TGI (MCF7 breast): > 10 µM
TGI (MDA-MB-231 breast): > 10 µM
TGI (MDA-MB-435): > 10 µM
TGI (MDA-N): > 10 µM
TGI (MOLT-4 leukemia): > 10 µM
TGI (NCI-H226 lung): > 10 µM
TGI (NCI-H23 lung): > 10 µM
TGI (NCI-H460 lung): > 10 µM
TGI (NCI-H522 lung): > 10 µM
TGI (NCI/ADR-RES ovarian): > 10 µM
TGI (OVCAR-3 ovarian): > 10 µM
TGI (OVCAR-4 ovarian): > 10 µM
TGI (OVCAR-5 ovarian): > 10 µM
TGI (OVCAR-8 ovarian): > 10 µM
TGI (PC-3 prostate): > 10 µM
TGI (RPMI-8226 leukemia): > 10 µM
TGI (RXF 393 renal): > 10 µM
TGI (SF-268 CNS): > 10 µM
TGI (SF-295 CNS): > 10 µM
TGI (SK-MEL-2 melanoma): > 10 µM
TGI (SN12C renal): > 10 µM
TGI (SNB-19 CNS): > 10 µM
TGI (SR leukemia): > 10 µM
TGI (SW-620 colon): > 10 µM
TGI (T-47D breast): > 10 µM
TGI (TK-10 renal): > 10 µM
TGI (U251 CNS): > 10 µM
TGI (UACC-257 melanoma): > 10 µM
TGI (UO-31 renal): > 10 µM
